Experimental data taken from US20120149708A1, “MODULATORS OF VIRAL TRANSCRIPTION, AND METHODS AND COMPOSITIONS THEREWITH” (George Mason University, priority 2010, published 2012).
“Also recorded” adds a separate entry of the source.

What was measured:
CEM cells (uninfected) = test: Cell viability by trypan blue exclusion, 48 hours; type: cell-based
Method: (§1) TZM-bl cell lines were grown in Dulbecco's modified Eagle's medium supplemented with fetal bovine serum (FBS) (10%, v/v), 2 mM L-glutamine, and antibiotics (penicillin 100 U/ml, streptomycin […]) (cDMEM). HCT116 WT and HCT116 Dicer−/−cell lines were grown in McCoy's medium supplemented with FBS (10%, v/v), 2mM L-glutamine, and antibiotics (penicillin 100 U/ml, streptomycin […]). CEM, ACH2, Jurkat and U937 cells were grown in RPMI 1640 supplemented with FBS, L-glutamine, and antibiotics (penicillin 100 U/ml, streptomycin […]). All cell lines were maintained at 37° C. in 5% (v/v) CO2.
(§2) ACH2 cells are infected with HIV-1; TZM-bl cells contain a stably-integrated HIV-1 LTR-Luciferase reporter; CEM, Jurkat, and U937 cells are uninfected. Transfections were carried out using Attractene (Qiagen) lipid reagent. Cells were cultured to confluence and pelleted at 4° C. for 15 min at 3,000 rpm. The cell pellets were washed twice with 25 ml of phosphate-buffered saline (PBS) with Ca2+ and Mg2+ (Quality Biological) and centrifuged once more. Cell pellets were resuspended in lysis buffer (50 mM Tris-HCl, pH 7.5, 120 mM NaCl, 5 mM EDTA, 0.5%, v/v, NP-40, 50 mM NaF, 0.2 mM Na3VO4, 1 mM DTT, one complete protease cocktail tablet/50 ml (Roche) and incubated on ice for 20 min, with gentle vortexing every 5 min. Cell lysates were transferred to eppendorf tubes and were centrifuged at 10,000 rpm for 10 min. Supernatants were transferred to a fresh tube where protein concentrations were determined using Bio-Rad protein assay (Bio-Rad, Hercules, Calif.).
(§3) In brief, the inhibition studies were carried out as follows. HIV-1 infected cells ACH2, J1.1, OM10.1, U1 and uninfected CEM, Jurkat T-cells, and U937 were cultured in media. The appropriate inhibitor was added at a concentration of 10 μM. Cells were treated for 48 hours and cell viability was determined using trypan blue exclusion method. Results of such a screen for 19 inhibitors is shown in Table 1 where percent dead cells are indicated each drug tested.
(§4) Again HIV-1 infected and uninfected cells were treated with eighteen Formula I compounds at a drug concentration of 50 nm. Forty-eight hours after treatment, cytotoxicity was determined by trypan blue dye exclusion. Percent inhibition was calculated after obtaining the cell density for each well of the tissue culture plate at the end of 48 hrs.

U937 cells (uninfected) = test: Cell viability by trypan blue exclusion, 48 hours; type: cell-based
Method: as §1, §2, §3, §4

HIV-1 LTR = test: Luciferase assay of Tat-dependent HIV-1 LTR transcription in TZM-bl cells; type: cell-based; conditions: TZM-bl cells transfected with Tat, 50 nm, 48 hrs
Method: (§5) FIGS. 1 and 2 show screening results of CR8 derivatives on Tat-dependent transcription HIV-1 LTR. […] TZM-bl cells were transfected with 1 ug of Tat and treated the next day with DMSO, or the indicated CR8 derivative compounds at 50 nm. 48 hrs-post drug treatment, luciferase activity of the firefly luciferase was measured with the BrightGlo Luciferase Assay and luminescence was read from a 96 well plate on an EG&G Berthold luminometer. Assays were performed in triplicate, average and standard deviations are shown.
TZM-bl cells were transfected with pc-Tat (0.5 μg) using Attractene reagent (Qiagen) according to the manufacturers' instructions. Twenty-four hours later, cells were treated with DMSO or the indicated compound. Forty-eight hours-post drug treatment, luciferase activity of the firefly luciferase was measured with the BrightGlo Luciferase Assay (Promega).
These cells were brought into contact with 18 Formula I compounds.
Briefly, the addition of Tat protein enables activated transcription of HIV-1 promoter driving luciferase in these cells. Treated cells were assayed at 48 hrs after Tat transfection and drug treatment.

[1] = tested on: uninfected CEM, Jurkat T-cells, and U937 cells; test: MTT assay, uninfected cells; type: cell-based
Method: as §5
Quantitative MTT assays were performed (FIG. 2), to further validate the cell growth inhibitory activity of certain Formula I compounds. In this study, cultured, infected ACH2, J1.1, OM10.1, U1 and uninfected CEM, Jurkat T-cells, and U937 cells were brought in contact with Formula I compounds CR8, MRT-033, and BJFP1154 (CR8#13). Cell growth inhibition study was performed at two different concentrations of the inventive compounds, a low concentration of 50 nm, and high concentration of 10 μM.

TAR microRNA = test: RNase protection assay for TAR and TAR miRNA in TNF treated ACH2 cells; type: cell-based, HIV-1; conditions: CR8#13 50 nm compared to Flavopiridol 50 nm, 48 hrs
Text: Ten micrograms of total RNA from TNF treated CEM (lane 1) and TNF treated ACH2 cells (lanes 2-6) were hybridized to a radiolabeled TAR 5′ probe and then treated with RNase A. Arrows indicate the probe protected by TAR at 27 nucleotides and the probe protected by a TAR miRNA at approximately 22 nt. Cyc202 concentration at 500 nm, CR8 at 100 nm, CR8#13 at 50 nm, and Flavopiridol at 50 nm were used for these experiments.
Total RNA was extracted from TNF-treated CEM and ACH2 cells follow by drug treatment with Cyc202 (500 nm), CR8 ([…]), CR8#13 (50 nm), and Flavopiridol (50 nm) for 48 hrs using Trizol reagent (Invitrogen). RNase protection assays were performed as previously described (Klase et al, 2007).
RNA polymerase II associated with HIV-1 promoter, however, is phosphorylated on both Ser2 and 5 in the presence of Tat (see Zhou et al, 2004). In order to ascertain whether or not cells treated with CDK inhibitors according to the present invention produce additional TAR derived miRNA, the inevntor utilized RNase protection assays to detect small RNA fragments corresponding to the TAR sequence.
Briefly, a probe complementary to the entire length of the 5′ portion of the TAR stem loop was designed, which would detect the generation of ˜21 nt RNAs from any position within that sequence. […]

SMILES | Inhibition Percentage CEM (CEM cells (uninfected); 50 nM, 48 hrs) | Inhibition Percentage U937 (U937 cells (uninfected); 50 nM, 48 hrs) | inhibition of HIV-1 LTR transcription (luciferase) (HIV-1 LTR) | death of uninfected cells (MTT) ([1]; high concentration of 10 μM) | levels of TAR and miTAR RNA (RPA) (TAR microRNA) | inhibition at 10 µM (CEM cells (uninfected); Homo sapiens, CCRF-CEM, 48 h, 10 μM, 48 hours, read-out: % Inhibition (percent dead cells) CEM) | inhibition at 10 µM (U937 cells (uninfected); Homo sapiens, U-937, 10 μM, 48 hours, read-out: % Inhibition (percent dead cells) U937) | cell inhibition of uninfected cells (MTT) ([1]; 50 nm and 10 μM)
CC(C)c1cnn2c(NCc3ccc(-c4ccccn4)cc3)nc(NC[C@H](O)CO)nc12.O=C(O)/C=C/C(=O)O [BJFP1154] | − (1-5%) | − (1-5%) | greatest transcriptional inhibition; also recorded: significant inhibition of HIV-1 transcription | marginal, if any death of uninfected cells | Higher levels of TAR and miTAR RNA |  |  | 
CC[C@@H](CO)Nc1nc(NCc2ccc(-c3ccccn3)cc2)c2ncn(C(C)C)c2n1 [CR8] |  |  |  |  |  | 25% | 50% | some cell inhibition activity of uninfected cells
